Data: US20210017499A1, “SILOXANE POLYMER-BASED CANCER STEM CELL PREPARATION METHOD” (KOREA ADVANCED INSTITUTE OF SCIENCE AND TECHNOLOGY, priority 2019, published 2021)

Columns and labels:
Assay in all cases: Cell viability for doxorubicin (WST-1)
Type in all cases: cell-based, human
[1] = tested on: ssiCSC (SKOV3, MCF-7, Hep3B and SW480); conditions: Dox of 50 μM, 24 hours, vs 2D control group
Description: (§1) ssiCSC spheroids prepared from different kinds of cancer cells (SKOV3, MCF-7, Hep3B and SW480) were isolated using trypsin (TrypLE Express, Gibco), and the isolated cells were washed with D-PBS twice. The ssiCSC was plated on a 96-well plate (1×10^4 cells/well) and was cultured in a cell growth medium at 37° C. for 24 hours. Then, the medium was removed, and a new medium comprising various concentrations of doxorubicin was added to each well and cultured for 24 hours. Next, each well was washed with D-PBS and was replaced with a new cell growth medium of 100 μl, and then WST-1 cell proliferation reagent (Roche) of 10 μl was added and cultured for 4 hours. Then, the absorbance at 450 nm (standard wavelength, 600 nm) was measured using a microplate reader (Molecular Devices).
(§2) In addition, the drug resistance of ssiCSC for doxorubicin (DOX) known as an anti-cancer agent was confirmed. Specifically, ssiCSC spheroids prepared by culturing on the pV4D4 surface for 8 days were isolated to single cells, and the cell was cultured on the conventional TCP surface to a 2D single layer, and then DOX at various concentrations was treated for 24 hours.

[2] = tested on: SKOV3-ssiCSC; conditions: DOX at various concentrations, 24 hours
Description: as §1, §2

[3] = tested on: SW480-ssiCSC
Description: as §1, §2

`COc1cccc2c1C(=O)c1c(O)c3c(c(O)c1C2=O)C[C@@](O)(C(=O)CO)C[C@@H]3O[C@H]1C[C@H](N)[C@H](O)[C@H](C)O1` [Dox, doxorubicin] was tested, and the “drug resistance (cell viability)” value [1] was “higher resistance”, the “drug resistance (cell viability)” value [2] was “complete resistance” and the “drug resistance (cell viability)” value ([3]; DOX at various concentrations, 24 hours) was “complete resistance”. For the same compound, the “drug resistance after subculture” value ([3]; subcultured on the TCP surface twice) was “maintained drug resistance” and the cell viability ([3]; vs control group cancer cells without DOX) was “higher cell viability than the cancer cells of the control group in which DOX was not treated”.
